Source: patent publication US4672036A, “Pure cultures of Kibdelsporangium aridum Shearer gen. nov., sp. nov. ATCC 39323 and mutants thereof” (SmithKline Beckman Corporation, priority 1985, dated 1987)
Values after ≈ are worked out from the molar mass of the structure shown. Values joined by “and” are separate entries in the source; they are usually repeats but may differ in a detail not shown here. Identical values can stand only once. Like-named read-outs stand apart in the source and are kept apart here.

Experiments:
[1] = test system: B. thetaiotamicron SK & F 3089; format: cell-based
[2] = test system: Fusobacterium nucleatum ATCC 25586; format: cell-based; conditions: Fusobacterium nucleatum, ATCC25586
[3] = test system: Staph. aureus SK & F 2678; format: cell-based; conditions: Staphylococcus aureus
rumen in vitro model = rumen in vitro model (growth promotant activity); parameters: species or system steer
Protocol: The protocol for the rumen in vitro model is analogous to the protocol for the swine in vitro model with the following modifications:
(1) A 400 kg steer is surgically prepared with a rumen cannula.
(2) The animal is fed one time a day with the following ration:
(3) Manipulation of VFA production is described as the production ratio of propionate as a percentage of total VFA produced.
(4) Sampling of the material, via the cannula, is at 120 minutes post feeding.

B. fragilis H145 = format: cell-based, Bacteroides fragilis; conditions: Bacteroides fragilis, H145
Staph. aureus HH127 = format: cell-based; conditions: Staphylococcus aureus
[4] = test system: Staph. aureus SK & F 2613; format: cell-based; conditions: Staphylococcus aureus
Staph. aureus SK & F 675 = format: cell-based; conditions: Staphylococcus aureus
[5] = test system: Bacteroides fragilis ATCC 25285; format: cell-based; conditions: Bacteroides fragilis, ATCC25285
[6] = test system: Staph. aureus SK & F 2590; format: cell-based; conditions: Staphylococcus aureus
[7] = test system: Proteus morgani SK & F 179; format: cell-based
[8] = test system: Enterobacter cloacae HH31254; format: cell-based; conditions: Enterobacter cloacae, HH31254
[9] = test system: Listeria monocytogenes SK & F 2255; format: cell-based; conditions: Listeria monocytogenes
[10] = test system: Staph. aureus SK & F 2616; format: cell-based; conditions: Staphylococcus aureus
[11] = test system: Staph. aureus SK & F 2736; format: cell-based; conditions: Staphylococcus aureus
[12] = test system: Kleb. pneumoniae 4200 (SK & F 798); format: cell-based; conditions: Klebsiella pneumoniae
[13] = test system: Staph. epidermidis SK & F 2265; format: cell-based; conditions: Staphylococcus epidermidis
C. perfringens MCP-2 = experiment: microbe, parasite or virus in culture; conditions: Clostridium perfringens, MCP2
[14] = test system: Salmonella gallinarum BC595; experiment: microbe, parasite or virus in culture; conditions: Salmonella enterica

Question: What does the source list for `CN[C@H](CC(C)C)C(=O)N[C@H]1C(=O)N[C@@H](CC(N)=O)C(=O)N[C@H]2C(=O)N[C@H]3C(=O)N[C@H](C(=O)N[C@H](C(=O)O)c4cc(O)cc(O)c4-c4cc3ccc4O)[C@H](O)c3ccc(c(Cl)c3)Oc3cc2cc(c3O[C@@H]2O[C@H](CO)[C@@H](O)[C@H](O)[C@H]2O[C@H]2C[C@](C)(N)[C@H](O)[C@H](C)O2)Oc2ccc(cc2Cl)[C@H]1O` [Vancomycin, reference compound]?
Answer: MIC [1]: 32 µg/mL (≈ 22.1 µM); MIC [2]: 32 µg/mL (≈ 22.1 µM); MIC [3]: 1.6 µg/mL (≈ 1.1 µM); Propionate % (rumen in vitro model): 127 % Control and 130 % Control and 105 % Control; VFA (total of volatile fatty acids) (rumen in vitro model): 107 % Control and 97 % Control; MIC (B. fragilis H145): 32 µg/mL (≈ 22.1 µM); MIC (Staph. aureus HH127; HH127, Table A): 1.6 µg/mL (≈ 1.1 µM); MIC (Staph. aureus HH127; HH127, Table B, Methicillin Sensitive): 1.6 µg/mL (≈ 1.1 µM); MIC (Staph. aureus HH127; HH127, Table E): 3.1 µg/mL (≈ 2.14 µM); MIC [4]: 1.6 µg/mL (≈ 1.1 µM); MIC (Staph. aureus SK & F 675; Table C, Methicillin Resistant): 1.6 µg/mL (≈ 1.1 µM); MIC (Staph. aureus SK & F 675; Table E): 3.1 µg/mL (≈ 2.14 µM); MIC [5]: 32 µg/mL (≈ 22.1 µM); MIC [6]: 1.6 µg/mL (≈ 1.1 µM); MIC [7]: > 100 µg/mL; MIC [8]: > 100 µg/mL; MIC ([9]; Table A): 1.6 µg/mL (≈ 1.1 µM); MIC ([9]; Table E): 3.1 µg/mL (≈ 2.14 µM); MIC [10]: 0.8 µg/mL (≈ 0.552 µM); MIC [11]: 1.6 µg/mL (≈ 1.1 µM); MIC [12]: > 100 µg/mL; MIC [13]: 6.3 µg/mL (≈ 4.35 µM); MIC (C. perfringens MCP-2): 0.5 µg/mL (≈ 0.345 µM); MIC ([14]; Table A): 25 µg/mL (≈ 17.3 µM); MIC ([14]; Table E): > 100 µg/mL
